Data published in US20120108501A1, “Protease Inhibitors” (priority 2009, published 2012).
Structures can show the parent of a compound that is named as a salt. Where two headings read alike, the source gives them in different places.

Legend:
[1] = Pharmacokinetics of PEGylated protease inhibitor prodrugs in rats; format: in vivo, male Sprague-Dawley rats; set-up: AUCall / AUC: concentration or dose not given beside the values; conditions: prodrug in plasma; for AUCall / Cmax / AUC: mean ± SD; for concentration at 24 hr: read-out: Cmin(24 hr); for half-life: read-out: t½(z) (converted)
Procedure: Pharmacokinetic analysis of protease inhibitors described herein was conducted. To evaluate the pharmacokinetics of PEGylated protease inhibitor conjugates with releasable lipophilic attachments, test compounds were administered to male Sprague-Dawley rats.
At various times following test article administration, serial blood samples were collected from indwelling jugular vein catheters and transferred to micro-tubes containing 7.5 μL of 20% w/v K2EDTA as an anticoagulant. Following processing of the blood samples to plasma (10 minutes at 10000 rpm, Centrifuge Model: Kubota 3500), plasma concentrations of the test article or corresponding PEGylated molecule released from the test article was measured using LC-MS/MS methods. Pharmacokinetic parameters were estimated using noncompartmental methods.
Table 3 presents a summary of pharmacokinetic parameters of PEGylated protease inhibitor prodrugs, wherein Cmax is the maximum (peak) concentration, AUCall represents the area under the concentration-time curve from zero to time of last concentration value, T½ is half life, and MRTlast is the mean residence time to last observable concentration

[2] = Pharmacokinetics of released PEGylated protease inhibitor following P.O. administration of prodrugs in rats; format: in vivo, male Sprague-Dawley rats; set-up: AUCall Mean: concentration or dose not given beside the values; C24 Mean: unit not given here; conditions: rats (n = 4-5); for C24 Mean: concentration at 24 hours
Summary of the method: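 Prodrugs given orally to male Sprague-Dawley rats, with serial blood via jugular catheter into K2EDTA. Plasma levels of test article or released PEGylated inhibitor measured by LC-MS/MS. PK parameters from noncompartmental analysis.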

[3] = mPEG5-atazanavir in plasma after PO administration of mPEG5-ATV or of the listed prodrug
[4] = mPEG3-atazanavir in plasma after PO administration of mPEG3-ATV or of the listed prodrug
[5] = mPEG6-atazanavir in plasma after PO administration of mPEG6-ATV or of the listed prodrug
[6] = male, Sprague-Dawley, rat, in vivo
[7] = male, Sprague-Dawley, rat, in vivo, read-out: Cmax
[8] = male, Sprague-Dawley, rat, oral

Molecule | MRTlast [1] | t½(z) [1] | Cmin(24 hr) [1] | AUCall [1] | Cmax [1] | MRT last [1, 6] | AUC [1, 6] | Cmax [1, 7] | also measured
CCOC(=O)O[C@@H](CN(Cc1ccc(-c2ccccn2)cc1)NC(=O)[C@@H](NC(=O)OC)C(C)(C)C)[C@H](Cc1ccccc1)NC(=O)[C@@H](NC(=O)OCCOCCOCCOCCOCCOC)C(C)(C)C.Cl [mPEG5-Atazanavir - Ethyl Carbonate HCl, mPEG5-Atazanavir Ethyl Carbonate] | 2.6 ± 0.514 h | 7.46 ± 4.14 h | 2.19 ± 0.700 ng/mL | 2250 ± 389 ng·h/mL | 740 ± 253 ng/mL | – | – | – | C24 Mean [2, 3]: 2.76; AUCall Mean [2, 3]: 93.2 ng·h/mL; Cmax Mean [2, 3]: 16.7 ng/mL; MRT last Mean [2, 3]: 8.51 h; Tmax Median [2, 3]: 2.00 h
COCCOCCOCCOC(=O)NC(C(=O)NC(Cc1ccccc1)C(CN(Cc1ccc(-c2ccccn2)cc1)NC(=O)C(NC(=O)OC)C(C)(C)C)OC(=O)CCCC(=O)O)C(C)(C)C (stereo not shown) [mPEG3-Atazanavir-glutaric acid] | 8.23 ± 3.48 h | 7.69 ± 2.54 h | 2.68 ± 1.51 ng/mL | 351 ± 50.2 ng·h/mL | 61.3 ± 52.7 ng/mL | – | – | – | AUCall Mean [2, 4]: 53.8 ng·h/mL; MRT last Mean [2, 4]: 19.5 h; Tmax* Median [2, 4]: 24.0 h
COCCOCCOCCOCCOCCOCCOC(=O)NC(C(=O)NC(Cc1ccccc1)C(CN(Cc1ccc(-c2ccccn2)cc1)NC(=O)C(NC(=O)OC)C(C)(C)C)OC(=O)COCCOC(=O)C(N)Cc1ccccc1)C(C)(C)C.Cl (stereo not shown) [mPEG6-Atazanavir-CME-phenylalanine HCl] | 0.948 ± 0.0741 h | – | – | 6.41 ± 9.53 ng·h/mL | 8.21 ± 12.1 ng/mL | – | – | – | AUCall Mean [2, 5]: 351 ng·h/mL; Cmax Mean [2, 5]: 12.5 ng/mL; MRT last Mean [2, 5]: 22.1 h; Tmax Median [2, 5]: 1.00 h
COCCOCCOCCOC(=O)NC(C(=O)NC(Cc1ccccc1)C(CN(Cc1ccc(-c2ccccn2)cc1)NC(=O)C(NC(=O)OC)C(C)(C)C)OC(=O)COCCOC(=O)C(Cc1ccccc1)NC(=O)C(N)Cc1ccccc1)C(C)(C)C.Cl (stereo not shown) [mPEG3-atazanavir-CME-phe-phenylalanine, mPEG3-Atazanavir-CME-PhePhenylalanine] | 0.696 ± 0.381 h | – | – | 0.919 ± 0.968 ng·h/mL | 0.772 ± 0.253 ng/mL | – | – | – | AUCall Mean [2, 4]: 120 ng·h/mL; Cmax Mean [2, 4]: 6.26 ng/mL; MRT last Mean [2, 4]: 16.2 h; Tmax* Median [2, 4]: 1.25 h
COCCOCCOCCOCCOCCOC(=O)N[C@H](C(=O)N[C@@H](Cc1ccccc1)[C@H](CN(Cc1ccc(-c2ccccn2)cc1)NC(=O)[C@@H](NC(=O)OC)C(C)(C)C)OC(=O)[C@H](CC(C)C)NC(=O)[C@@H](N)CC(C)C)C(C)(C)C.Cl [Leu-Leu-mPEG5-Atazanavir HCl, Leu-Leu-mPEG5-Atazanavir Hydrochloride] | – | – | – | – | – | 3.59 ± 3.27 h | 24.9 ± 6.24 ng·h/mL | 7.21 ± 0.417 ng/mL | concentration at 24 hr [1, 6]: 0.201 ± 0.401 ng/mL; half-life [1, 6]: 216 ± 155 min; C24 Mean [2, 3]: 2.98; AUCall Mean [2, 3]: 118 ng·h/mL; Cmax Mean [2, 3]: 14.1 ng/mL; MRT last Mean [2, 3]: 10.7 h; Tmax Median [2, 3]: 0.750 h
CCOC(=O)OC(CN(Cc1ccc(-c2ccccn2)cc1)NC(=O)C(NC(=O)OC)C(C)(C)C)C(Cc1ccccc1)NC(=O)C(NC(=O)OCCOCCOCCOC)C(C)(C)C (stereo not shown) [mPEG3-atazanavir ethyl carbonate, mPEG3-Atazanavir Ethyl Carbonate] | 3.12 ± 0.285 h | 6.56 ± 5.13 h | 2.42 ± 1.20 ng/mL | 4960 ± 442 ng·h/mL | 1190 ± 294 ng/mL | – | – | – | C24 Mean [2, 4]: 1.42; AUCall Mean [2, 4]: 199 ng·h/mL; Cmax Mean [2, 4]: 17.9 ng/mL; MRT last Mean [2, 4]: 15.5 h; Tmax* Median [2, 4]: 1.00 h
CCOCO[C@@H](CN(Cc1ccc(-c2ccccn2)cc1)NC(=O)[C@@H](NC(=O)OC)C(C)(C)C)[C@H](Cc1ccccc1)NC(=O)[C@@H](NC(=O)OCCOCCOCCOC)C(C)(C)C [mPEG3-Atazanavir-methyl ethyl ether, mPEG3-Atazanavir Methyl Ethyl Ether] | 2.44 ± 0.920 h | 9.41 ± 3.35 h | 0.797 ± 0.260 ng/mL | 6590 ± 2150 ng·h/mL | 1600 ± 442 ng/mL | – | – | – | C24 Mean [2, 4]: 1.20; AUCall Mean [2, 4]: 822 ng·h/mL; Cmax Mean [2, 4]: 190 ng/mL; MRT last Mean [2, 4]: 3.29 h; Tmax* Median [2, 4]: 0.750 h
COCCOCCOCCOCCOCCOCCOC(=O)NC(C(=O)NC(Cc1ccccc1)C(CN(Cc1ccc(-c2ccccn2)cc1)NC(=O)C(NC(=O)OC)C(C)(C)C)OC(=O)COCCOC(=O)C(N)CC(C)C)C(C)(C)C.Cl (stereo not shown) [mPEG6-Atazanavir-CME-Leucine HCl, mPEG6-Atazanavir-CME-Leucine] | 2.24 ± 2.58 h | – | – | 2.56 ± 2.89 ng·h/mL | 0.851 ± 0.730 ng/mL | – | – | – | AUCall Mean [2, 5]: 287 ng·h/mL; Cmax Mean [2, 5]: 8.65 ng/mL; MRT last Mean [2, 5]: 21.8 h; Tmax Median [2, 5]: 1.50 h
Methoxyacetate Ester-mPEG5-Atazanavir | 5.81 ± 2.95 h | 6.30 ± 2.06 h | – | 298 ± 121 ng·h/mL | 38.7 ± 13.8 ng/mL | – | – | – | AUCall Mean [2, 3]: 298 ng·h/mL; Cmax Mean [2, 3]: 38.7 ng/mL; MRT last Mean [2, 3]: 5.81 h; Tmax Median [2, 3]: 1.50 h
COCCOCCOCCOCCOCCOCCOC(=O)NC(C(=O)NC(Cc1ccccc1)C(CN(Cc1ccc(-c2ccccn2)cc1)NC(=O)C(NC(=O)OC)C(C)(C)C)OCOC)C(C)(C)C (stereo not shown) [mPEG6-Atazanavir-methyl methyl ether, mPEG6-Atazanavir Methyl Methyl Ether] | 5.12 ± 1.74 h | 11.2 ± 7.72 h | 3.47 ± 2.81 ng/mL | 1140 ± 312 ng·h/mL | 222 ± 73 ng/mL | – | – | – | AUCall Mean [2, 5]: 55.8 ng·h/mL; Cmax Mean [2, 5]: 11.3 ng/mL; MRT last Mean [2, 5]: 3.11 h; Tmax Median [2, 5]: 1.50 h
COCCOCCOCCOCCOCCOC(=O)N[C@H](C(=O)N[C@@H](Cc1ccccc1)[C@H](CN(Cc1ccc(-c2ccccn2)cc1)NC(=O)[C@@H](NC(=O)OC)C(C)(C)C)OC(=O)CNC(=O)[C@@H](N)CC(C)C)C(C)(C)C [Leu-Gly-mPEG5-Atazanavir HCl, Leu-Gly-mPEG5-Atazanavir Hydrochloride] | – | – | – | – | – | 2.85 ± 3.68 h | 1.53 ± 2.93 ng·h/mL | 0.479 ± 0.572 ng/mL | –
COCCOCCOCCOC(=O)N[C@H](C(=O)N[C@@H](Cc1ccccc1)[C@H](CN(Cc1ccc(-c2ccccn2)cc1)NC(=O)[C@@H](NC(=O)OC)C(C)(C)C)OC(=O)[C@H](Cc1ccccc1)NC(=O)[C@@H](N)C(C)C)C(C)(C)C [Val-Phe-mPEG3-Atazanavir, Val-Phe-mPEG3-Atazanavir Hydrochloride] | – | – | – | – | – | 1.68 ± 0.297 h | 700 ± 361 ng·h/mL | 334 ± 133 ng/mL | half-life [1, 6]: 135 ± 76.8 min
COCCOCCOCCOCCOCCOC(=O)N[C@H](C(=O)N[C@@H](Cc1ccccc1)[C@H](CN(Cc1ccc(-c2ccccn2)cc1)NC(=O)[C@@H](NC(=O)OC)C(C)(C)C)OC(=O)CNC(=O)[C@@H](N)Cc1ccccc1)C(C)(C)C [Phe-Gly-mPEG5-Atazanavir HCl, Phe-Gly-mPEG5-Atazanavir Hydrochloride] | – | – | – | – | – | 0.357 ± 0.129 h | 0.341 ± 0.313 ng·h/mL | 0.895 ± 0.808 ng/mL | –
COCCOCCOCCOCCOCCOC(=O)N[C@H](C(=O)N[C@@H](Cc1ccccc1)[C@H](CN(Cc1ccc(-c2ccccn2)cc1)NC(=O)[C@@H](NC(=O)OC)C(C)(C)C)OC(=O)[C@@H](N)CC(C)C)C(C)(C)C [mPEG5-Atazanavir-L-Leucine] | – | – | – | – | – | – | – | – | MRT last [1, 8]: 1.71 ± 0.327 h; AUC [1, 8]: 487 ± 348 ng·h/mL; Cmax ([1]; male, Sprague-Dawley, rat, oral, read-out: Cmax): 191 ± 85.6 ng/mL; half-life [1, 8]: 142 ± 131 min
COCCOCCOCCOCCOCCOC(=O)N[C@H](C(=O)N[C@@H](Cc1ccccc1)[C@H](CN(Cc1ccc(-c2ccccn2)cc1)NC(=O)[C@@H](NC(=O)OC)C(C)(C)C)OC(=O)CNC(=O)[C@@H](N)C(C)C)C(C)(C)C [Val-Gly-mPEG5-Atazanavir HCl, Val-Gly-mPEG5-Atazanavir Hydrochloride] | – | – | – | – | – | 0.779 ± 0.513 h | 14.9 ± 18.7 ng·h/mL | 33.7 ± 53.9 ng/mL | half-life [1, 6]: 177 min
COCCOCCOCCOC(=O)N[C@H](C(=O)N[C@@H](Cc1ccccc1)[C@H](CN(Cc1ccc(-c2ccccn2)cc1)NC(=O)[C@@H](NC(=O)OC)C(C)(C)C)OC(=O)[C@H](Cc1ccccc1)NC(=O)[C@@H](N)Cc1ccccc1)C(C)(C)C [Phe-Phe-mPEG3-Atazanavir, Phe-Phe-mPEG3-Atazanavir Hydrochloride] | – | – | – | – | – | 6.27 ± 1.31 h | 609 ± 157 ng·h/mL | 112 ± 31.6 ng/mL | concentration at 24 hr [1, 6]: 3.15 ± 0.946 ng/mL; half-life [1, 6]: 499 ± 72.6 min
